Measured values from patent publication US20110046108A1, “PYRIMIDINE DERIVATIVES” (AstraZeneca AB, priority 2006, published 2011).
Where two headings read alike, the source gives them in different places.

Key:
recombinant EphB4 = target: T1, recombinant EphB4 (Homo sapiens, UniProt P54760); assay: In vitro EphB4 enzyme assay (Assay A, Alphascreen); format: biochemical; conditions: 4 μM ATP
T1 construct: recombinant active EphB4 (amino acids 563-987; Swiss-Prot Acc; No. P54760); purchased ProQinase GmbH 0178-0000-3
T1 sequence (P54760 563-987): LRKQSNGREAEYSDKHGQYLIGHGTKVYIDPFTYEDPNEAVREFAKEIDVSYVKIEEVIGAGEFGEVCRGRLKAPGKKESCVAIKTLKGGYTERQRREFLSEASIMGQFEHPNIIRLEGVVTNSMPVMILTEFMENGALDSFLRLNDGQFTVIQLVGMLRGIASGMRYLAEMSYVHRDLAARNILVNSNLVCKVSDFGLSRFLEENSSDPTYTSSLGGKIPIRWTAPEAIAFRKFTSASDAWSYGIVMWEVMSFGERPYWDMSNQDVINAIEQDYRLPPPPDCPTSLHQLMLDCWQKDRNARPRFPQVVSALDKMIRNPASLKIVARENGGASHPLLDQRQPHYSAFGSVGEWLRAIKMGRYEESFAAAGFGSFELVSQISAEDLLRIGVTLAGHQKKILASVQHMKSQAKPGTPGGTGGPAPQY
Protocol: This assay detects inhibitors of EphB4-mediated phosphorylation of a polypeptide substrate using Alphascreen™ luminescence detection technology. Briefly, recombinant EphB4 was incubated with a biotinylated-polypeptide substrate (biotin-poly-GAT) in presence of magnesium-ATP. The reaction was stopped by addition of EDTA, together with streptavidin-coated donor beads which bind the biotin-substrate containing any phosphorylated tyrosine residues. Anti-phosphotyrosine antibodies present on acceptor beads bind to phosphorylated substrate, thus bringing the donor & acceptor beads into close proximity. Subsequent excitation of the donor beads at 680 nm generated singlet oxygen species that interact with a chemiluminescer on the acceptor beads, leading to light emission at 520-620 nm. The signal intensity is directly proportional to the level of substrate phosphorylation and thus inhibition is measured by a decrease in signal.
Test compounds were prepared as 10 mM stock solutions in DMSO (Sigma-Aldrich Company Ltd, Gillingham, Dorset SP8 4XT Catalogue No.154938) and serially diluted with 5% DMSO to give a range of test concentrations at 6× the required final concentration. […]
The resulting assay signal was determined on the Perkin Elmer EnVision plate reader. […]

EphB4 = target: T2, EphB4 (Homo sapiens, UniProt P54760); assay: In vitro EphB4 cell assay (Assay B, EphB4 phosphorylation ELISA in EphB4-CHO cells); format: cell-based
T2 construct: to generate full-length EphB4 containing a Myc-His tag at the C-terminus; expressed in transfected cells; host or cells: CHO-K1 (EphB4-CHO)
T2 sequence (P54760 16-987): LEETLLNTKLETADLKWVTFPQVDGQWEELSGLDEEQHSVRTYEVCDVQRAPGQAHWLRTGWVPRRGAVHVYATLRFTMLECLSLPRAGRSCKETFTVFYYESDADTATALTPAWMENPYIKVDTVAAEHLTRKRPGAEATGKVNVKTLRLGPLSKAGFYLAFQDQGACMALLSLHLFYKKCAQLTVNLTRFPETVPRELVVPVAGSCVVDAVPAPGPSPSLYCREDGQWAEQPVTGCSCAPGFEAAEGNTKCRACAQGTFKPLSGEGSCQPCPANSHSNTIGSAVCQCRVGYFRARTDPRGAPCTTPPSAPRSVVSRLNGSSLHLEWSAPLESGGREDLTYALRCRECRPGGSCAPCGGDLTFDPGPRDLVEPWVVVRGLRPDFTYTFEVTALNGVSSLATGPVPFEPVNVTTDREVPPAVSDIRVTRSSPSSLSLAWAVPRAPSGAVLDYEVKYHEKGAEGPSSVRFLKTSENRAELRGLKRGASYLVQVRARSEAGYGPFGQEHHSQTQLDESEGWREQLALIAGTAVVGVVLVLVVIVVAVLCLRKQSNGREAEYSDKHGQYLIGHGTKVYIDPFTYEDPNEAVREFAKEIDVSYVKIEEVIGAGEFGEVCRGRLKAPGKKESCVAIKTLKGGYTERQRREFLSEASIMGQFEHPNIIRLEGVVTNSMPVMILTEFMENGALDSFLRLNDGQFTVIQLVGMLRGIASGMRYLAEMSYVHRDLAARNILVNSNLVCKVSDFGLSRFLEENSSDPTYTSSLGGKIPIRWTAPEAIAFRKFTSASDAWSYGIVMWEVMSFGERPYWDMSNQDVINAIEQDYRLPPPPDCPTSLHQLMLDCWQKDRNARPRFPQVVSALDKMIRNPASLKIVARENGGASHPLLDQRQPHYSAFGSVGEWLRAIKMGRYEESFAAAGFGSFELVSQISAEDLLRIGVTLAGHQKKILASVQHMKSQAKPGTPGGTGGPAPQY

c-Src kinase = target: T3, c-Src kinase (Homo sapiens, UniProt P12931); assay: Src in vitro enzyme assay (Assay C, ELISA); format: biochemical; conditions: 2.2 μM ATP
T3 construct: purchased Upstate 14-117
T3 sequence (P12931 whole entry): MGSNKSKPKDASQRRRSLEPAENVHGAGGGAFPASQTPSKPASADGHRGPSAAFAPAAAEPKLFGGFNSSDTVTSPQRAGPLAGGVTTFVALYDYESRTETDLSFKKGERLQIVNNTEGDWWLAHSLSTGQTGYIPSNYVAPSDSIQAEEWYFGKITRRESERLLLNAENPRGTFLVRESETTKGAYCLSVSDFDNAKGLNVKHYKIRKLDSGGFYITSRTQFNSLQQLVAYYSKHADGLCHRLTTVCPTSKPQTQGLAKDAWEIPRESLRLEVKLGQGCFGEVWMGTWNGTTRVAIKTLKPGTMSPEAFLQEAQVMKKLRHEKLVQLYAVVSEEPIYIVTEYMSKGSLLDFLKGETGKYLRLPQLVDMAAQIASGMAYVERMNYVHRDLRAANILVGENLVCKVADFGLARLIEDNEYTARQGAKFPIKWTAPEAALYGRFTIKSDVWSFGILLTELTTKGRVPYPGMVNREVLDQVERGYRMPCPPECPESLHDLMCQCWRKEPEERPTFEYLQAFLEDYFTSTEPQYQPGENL
Protocol: The ability of test compounds to inhibit the phosphorylation of a tyrosine containing polypeptide substrate by the enzyme c-Src kinase was assessed using a conventional ELISA assay with a colorimetric endpoint.
Each well of Matrix 384-well plates (Matrix, Brooke Park, Wilmslow, Cheshire, SK9 3LP, UK, Catalogue No. 4311) were coated overnight at 4° C. with 40 μl of 10 ug/ml stock of synthetic polyamino acid pEAY substrate (Sigma-Aldrich Company Ltd, Gillingham, Dorset, SP8 4XT, UK, Catalogue No. P3899) in phosphate buffered saline (PBS). Immediately prior to the assay, the plates were washed with 100 μl/well of PBS containing Tween-20 and then with 50 mM HEPES pH7.4.
Test compounds were prepared as 10 mM stock solutions in DMSO (Sigma-Aldrich Company Ltd, Gillingham, Dorset, SP8 4XT, UK, Catalogue No.154938) and serially diluted with 10% DMSO to give a range of test concentrations at 4× the required final concentration. […]
The plates were washed three times with 100 μl/well of PBS-Tween20 and then 40 μl of a PBS-Tween20 and 0.5% BSA solution containing 4G10-HRP anti-phosphotyrosine antibody (Upstate, Catalogue No 16-105) added to each well. […] The reaction was then stopped with the addition of 20 μl/well 2M sulphuric acid and the absorbances determined at 450 nm using a plate reading spectrophotometer. […]

[1] = mean values, Table A, read-out: Mean IC50 (μM) obtained using Assay B

Clc1ccc2c(c1Nc1ccnc(Nc3ccc4ncsc4c3)n1)OCO2 [Compound 59, N~2~-1,3-benzothiazol-6-yl-N~4~-(5-chloro-1,3-benzodioxol-4-yl)pyrimidine-2,4-diamine]
IC50 (recombinant EphB4): 460 nM
IC50 (EphB4; ephrin-B2 stimulated EphB4 phosphorylation, read-out: IC50 in assay B): 1.25 µM
IC50 (c-Src kinase): 330 nM

CN(c1ccnc(Nc2cccc(NS(C)(=O)=O)c2)n1)c1c(Cl)ccc2c1OCO2 [Compound 219, N-[3-[[4-[(5-chlorobenzo [1,3]dioxol-4-yl)-methyl-amino]pyrimidin-2-yl]amino]phenyl]methane sulfonamide]
IC50 (EphB4; [1]): 0.14 µM

CS(=O)(=O)Nc1cccc(Nc2nccc(N(CC#N)c3c(Cl)ccc4c3OCO4)n2)c1 [Compound 227]
IC50 (EphB4; [1]): 0.19 µM

N#Cc1cccc(Nc2nccc(N(CCO)c3c(Cl)ccc4c3OCO4)n2)c1 [Compound 241, 3-[[4-[(5-chlorobenzo [1,3]dioxol-4-yl)-(2-hydroxyethyl)amino]pyrimidin-2-yl]amino] benzonitrile]
IC50 (EphB4; [1]): 0.13 µM

COc1cc(Nc2nccc(Nc3cccc4c3OCO4)n2)cc(OC)c1 [Compound 258, N′-benzo[1,3]dioxol-4-yl-N-(3,5-dimethoxyphenyl) pyrimidine-2,4-diamine]
IC50 (EphB4; [1]): 1.08 µM

CC(=O)Nc1cc(Nc2nccc(Nc3cccc4[nH]ncc34)n2)ccc1C [Compound 293, N-[5-[[4-(1H-indazol-4-ylamino)pyrimidin-2-yl]amino]-2-methyl-phcnyl] acetamide]
IC50 (EphB4; [1]): 0.23 µM
